Legend:
Leukotriene C4 synthase = biological target: T1, Leukotriene C4 synthase (Cavia porcellus, UniProt A6XA80); assay: biochemical; assay type: tissue-based, Lung;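 note: enzyme inhibition assay of leukotriene C4 synthase, using LTA4 as the substrate; in other assays of this panel Not Active means under 50% inhibition at 10 µM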
T1 sequence (A6XA80 whole entry): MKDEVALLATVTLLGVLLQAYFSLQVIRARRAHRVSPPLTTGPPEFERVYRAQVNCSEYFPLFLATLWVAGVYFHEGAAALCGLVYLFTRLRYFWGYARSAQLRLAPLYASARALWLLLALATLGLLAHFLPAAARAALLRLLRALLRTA

[1] = DRUGMATRIX: Purinergic P2X radioligand binding (ligand: [3H] alpha, beta-Methylene-ATP); assay type: cell membranes, Oryctolagus cuniculus, New Zealand albino, Urinary bladder, Membrane; settings: Not Active = under 50% inhibition at 10 µM
Interstitial collagenase = biological target: T2, Interstitial collagenase (Homo sapiens, UniProt P03956); assay: biochemical; assay type: tissue-based, Rheumatoid synovial fibroblasts;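 note: MMP-1 enzyme inhibition assay using a peptide substrate; in other assays of this panel Not Active means under 50% inhibition at 10 µM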
T2 sequence (P03956 whole entry): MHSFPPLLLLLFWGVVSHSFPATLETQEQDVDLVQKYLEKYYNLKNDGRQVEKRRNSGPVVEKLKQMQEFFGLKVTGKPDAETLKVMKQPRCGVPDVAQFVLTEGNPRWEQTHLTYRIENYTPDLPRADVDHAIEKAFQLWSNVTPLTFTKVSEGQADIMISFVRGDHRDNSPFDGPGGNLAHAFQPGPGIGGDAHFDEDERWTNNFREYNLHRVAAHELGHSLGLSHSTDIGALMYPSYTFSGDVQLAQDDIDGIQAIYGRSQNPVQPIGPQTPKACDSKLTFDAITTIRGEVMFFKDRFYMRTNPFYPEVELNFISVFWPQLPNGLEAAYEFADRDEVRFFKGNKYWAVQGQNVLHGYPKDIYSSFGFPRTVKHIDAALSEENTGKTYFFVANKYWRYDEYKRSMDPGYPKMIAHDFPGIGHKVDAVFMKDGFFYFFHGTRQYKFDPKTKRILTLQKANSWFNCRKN

[2] = DRUGMATRIX: Sodium/nucleoside co-transporter radioligand binding (ligand: nitrobenzylthioinosine); assay type: cell membranes, Cavia porcellus, Dunkin-Hartley, Cerebral cortex, Membrane; settings: Not Active = under 50% inhibition at 10 µM
[3] = biological target: Tyrosine-protein kinase Lck (Homo sapiens, UniProt P06239); assay: DRUGMATRIX: Protein Tyrosine Kinase, LCK enzyme inhibition (substrate: Poly(Glu:Tyr)); assay type: cell-based, Insect cells; settings: insect cells; Not Active = under 50% inhibition at 10 µM
[4] = biological target: Tyrosine-protein kinase Fyn (Homo sapiens, UniProt P06241); assay: biochemical; assay type: cell-based, Insect cells; settings: insect cells;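 note: enzymatic inhibition of Fyn kinase activity measured with Poly(Glu:Tyr) as the phosphorylation substrate; in other assays of this panel Not Active means under 50% inhibition at 10 µM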
[5] = biological target: T3, Nitric oxide synthase, inducible (Mus musculus, UniProt P29477); set-up: species or system Escherichia coli;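 note: inhibition of iNOS enzyme activity measured with L-arginine as substrate; in other assays of this panel Not Active means under 50% inhibition at 10 µM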
T3 sequence (P29477 whole entry): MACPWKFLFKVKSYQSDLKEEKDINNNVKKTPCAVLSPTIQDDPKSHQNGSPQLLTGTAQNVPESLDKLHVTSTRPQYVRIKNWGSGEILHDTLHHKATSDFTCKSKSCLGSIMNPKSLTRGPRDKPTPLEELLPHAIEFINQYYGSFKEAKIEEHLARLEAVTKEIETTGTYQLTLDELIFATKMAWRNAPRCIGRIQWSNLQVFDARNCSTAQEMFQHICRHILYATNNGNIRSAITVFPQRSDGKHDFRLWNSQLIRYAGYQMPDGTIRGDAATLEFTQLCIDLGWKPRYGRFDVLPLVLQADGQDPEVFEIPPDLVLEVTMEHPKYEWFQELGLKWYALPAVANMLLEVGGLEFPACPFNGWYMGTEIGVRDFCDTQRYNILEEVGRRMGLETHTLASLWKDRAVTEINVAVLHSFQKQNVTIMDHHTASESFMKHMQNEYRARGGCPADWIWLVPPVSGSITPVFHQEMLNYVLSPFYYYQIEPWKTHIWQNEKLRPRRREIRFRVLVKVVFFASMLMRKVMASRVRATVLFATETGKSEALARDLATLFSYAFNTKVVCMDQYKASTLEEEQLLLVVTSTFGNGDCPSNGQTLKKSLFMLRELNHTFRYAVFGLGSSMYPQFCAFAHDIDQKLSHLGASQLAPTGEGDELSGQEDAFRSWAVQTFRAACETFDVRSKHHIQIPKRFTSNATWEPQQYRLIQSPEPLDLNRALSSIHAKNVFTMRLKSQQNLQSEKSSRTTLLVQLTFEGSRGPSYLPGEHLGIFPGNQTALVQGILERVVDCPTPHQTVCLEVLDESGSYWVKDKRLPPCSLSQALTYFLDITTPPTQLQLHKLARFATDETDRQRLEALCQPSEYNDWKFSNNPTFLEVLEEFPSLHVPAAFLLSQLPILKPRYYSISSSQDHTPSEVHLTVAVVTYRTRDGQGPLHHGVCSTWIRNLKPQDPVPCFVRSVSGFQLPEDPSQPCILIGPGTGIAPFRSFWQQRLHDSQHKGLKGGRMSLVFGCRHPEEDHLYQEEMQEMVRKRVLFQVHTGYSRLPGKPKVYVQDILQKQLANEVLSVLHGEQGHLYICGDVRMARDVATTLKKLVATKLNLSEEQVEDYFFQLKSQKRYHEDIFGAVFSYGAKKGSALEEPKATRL

Adenosine receptor A1 = biological target: T4, Adenosine receptor A1 (Homo sapiens, UniProt P30542); assay type: cell membranes, CHO, Membrane; settings: cho
T4 sequence (P30542 whole entry): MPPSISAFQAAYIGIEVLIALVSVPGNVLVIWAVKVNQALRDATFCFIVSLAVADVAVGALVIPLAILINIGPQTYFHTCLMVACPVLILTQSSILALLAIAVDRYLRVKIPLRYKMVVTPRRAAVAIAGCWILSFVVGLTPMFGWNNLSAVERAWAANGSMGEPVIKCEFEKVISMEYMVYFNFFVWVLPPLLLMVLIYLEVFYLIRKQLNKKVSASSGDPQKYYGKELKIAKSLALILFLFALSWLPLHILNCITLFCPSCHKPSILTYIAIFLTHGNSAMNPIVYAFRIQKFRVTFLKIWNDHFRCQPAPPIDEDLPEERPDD

Cytochrome P450 2E1 = Cytochrome P450 2E1 (Homo sapiens, UniProt P05181); settings: bti-tn-5b1-4; note: in other assays of this panel Not Active means under 50% inhibition at 10 µM
Sequence of Cytochrome P450 2E1 (P05181 whole entry): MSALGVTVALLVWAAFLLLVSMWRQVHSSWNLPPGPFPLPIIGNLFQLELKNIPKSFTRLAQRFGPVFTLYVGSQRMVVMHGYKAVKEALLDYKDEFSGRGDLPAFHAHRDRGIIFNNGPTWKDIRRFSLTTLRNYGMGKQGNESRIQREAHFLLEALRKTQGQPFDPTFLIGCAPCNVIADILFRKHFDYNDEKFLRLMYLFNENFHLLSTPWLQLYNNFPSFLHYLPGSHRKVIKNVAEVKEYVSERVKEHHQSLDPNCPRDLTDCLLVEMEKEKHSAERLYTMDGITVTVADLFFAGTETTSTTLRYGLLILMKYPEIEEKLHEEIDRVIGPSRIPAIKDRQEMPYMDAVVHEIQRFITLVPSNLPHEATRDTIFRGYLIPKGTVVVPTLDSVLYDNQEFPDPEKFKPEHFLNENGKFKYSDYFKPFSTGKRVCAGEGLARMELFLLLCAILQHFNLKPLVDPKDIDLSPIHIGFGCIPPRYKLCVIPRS

Sequence of Tyrosine-protein kinase Lck (P06239 whole entry): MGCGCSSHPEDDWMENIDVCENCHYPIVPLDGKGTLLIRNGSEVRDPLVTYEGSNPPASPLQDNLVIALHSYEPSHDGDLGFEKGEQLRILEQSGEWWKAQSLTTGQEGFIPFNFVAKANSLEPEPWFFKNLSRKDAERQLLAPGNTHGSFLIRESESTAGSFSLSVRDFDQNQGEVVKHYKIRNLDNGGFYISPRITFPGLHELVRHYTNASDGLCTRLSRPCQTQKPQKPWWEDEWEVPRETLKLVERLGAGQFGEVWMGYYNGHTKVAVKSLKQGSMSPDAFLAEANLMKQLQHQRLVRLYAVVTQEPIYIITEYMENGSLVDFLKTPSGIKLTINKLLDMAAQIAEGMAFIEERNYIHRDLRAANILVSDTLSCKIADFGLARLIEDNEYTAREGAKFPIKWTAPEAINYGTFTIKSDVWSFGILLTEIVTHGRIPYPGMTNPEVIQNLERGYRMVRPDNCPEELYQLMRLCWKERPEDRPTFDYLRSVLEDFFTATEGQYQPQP
Sequence of Tyrosine-protein kinase Fyn (P06241 whole entry): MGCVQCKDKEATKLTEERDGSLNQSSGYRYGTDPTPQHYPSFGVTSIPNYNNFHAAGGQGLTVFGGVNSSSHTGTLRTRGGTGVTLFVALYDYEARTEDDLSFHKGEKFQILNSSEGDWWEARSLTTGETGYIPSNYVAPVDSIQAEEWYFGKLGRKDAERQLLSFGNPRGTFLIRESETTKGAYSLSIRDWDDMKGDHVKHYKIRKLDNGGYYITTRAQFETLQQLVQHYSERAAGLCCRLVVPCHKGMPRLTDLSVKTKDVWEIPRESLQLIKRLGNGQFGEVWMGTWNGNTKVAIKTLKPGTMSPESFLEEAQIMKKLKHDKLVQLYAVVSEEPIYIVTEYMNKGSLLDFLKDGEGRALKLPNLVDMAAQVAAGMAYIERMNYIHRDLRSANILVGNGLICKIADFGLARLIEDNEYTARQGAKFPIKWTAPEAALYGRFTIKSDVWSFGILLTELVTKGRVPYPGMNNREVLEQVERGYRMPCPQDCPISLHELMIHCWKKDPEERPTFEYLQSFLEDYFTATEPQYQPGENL

C=CCN1CC[C@]23c4c5ccc(O)c4O[C@H]2/C(=N/N=C2\CC[C@@]4(O)[C@H]6Cc7ccc(O)c8c7[C@@]4(CCN6CC=C)[C@H]2O8)CC[C@@]3(O)[C@H]1C5 [NALOXONAZINE]
Not Active: IC50 (Leukotriene C4 synthase) | IC50 [1] | Ki [1] | IC50 (Interstitial collagenase) | IC50 [2] | Ki [2] | IC50 [3] | IC50 [4] | IC50 [5] | IC50 (Adenosine receptor A1) | IC50 (Cytochrome P450 2E1) | Ki (Cytochrome P450 2E1)

C[N+](C)(C)CCOP(=O)([O-])OC[C@H](O)CO
Not Active: IC50 (Leukotriene C4 synthase) | IC50 [1] | Ki [1] | IC50 (Interstitial collagenase) | IC50 [2] | Ki [2] | IC50 [3] | IC50 [4] | IC50 [5] | IC50 (Adenosine receptor A1) | IC50 (Cytochrome P450 2E1) | Ki (Cytochrome P450 2E1)

CCC1(c2ccccc2)C(=O)NC(=O)NC1=O [PHENOBARBITAL]
Not Active: IC50 (Leukotriene C4 synthase) | IC50 [1] | Ki [1] | IC50 (Interstitial collagenase) | IC50 [2] | Ki [2] | IC50 [3] | IC50 [4] | IC50 [5] | IC50 (Adenosine receptor A1) | IC50 (Cytochrome P450 2E1) | Ki (Cytochrome P450 2E1)

O=C(O)COC(=O)Cc1ccccc1Nc1c(Cl)cccc1Cl [ACECLOFENAC]
Not Active: IC50 (Leukotriene C4 synthase) | IC50 [1] | Ki [1] | IC50 (Interstitial collagenase) | IC50 [2] | Ki [2] | IC50 [3] | IC50 [4] | IC50 [5] | IC50 (Adenosine receptor A1) | IC50 (Cytochrome P450 2E1) | Ki (Cytochrome P450 2E1)

From ChEMBL document CHEMBL1909046, “DrugMatrix in vitro pharmacology data”
